“And” between values parts separate entries of the source, which are not always exact repeats. Equal values may be shown once.
System: COR L88 complex tumor spheroid viability
Test: Anticancer human tumor COR L88 cell line growth inhibition;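 further: compound exposure lasted 7 days before viability readout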;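 on viability, T/C: percent of DMSO vehicle-treated spheroids = 100%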
Settings: for viability, T/C: stronger effect = lower value
Outline: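 Complex spheroids of malignant cells with endothelial cells and mesenchymal stem cells; agents alone or combined, from near clinical Cmax (or 10 microM if unknown) down in half-log steps, 0.25% DMSO final.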

[1] = curve of first compound, second compound 0.003 µM
[2] = second compound 0.003 µM, first compound 0.0316 µM
[3] = second compound 0.003 µM, first compound 0.1 µM
[4] = second compound 0.003 µM, first compound 0.316 µM
[5] = second compound 0.003 µM, first compound 1 µM
[6] = second compound 0.003 µM, first compound 3.16 µM
[7] = second compound 0.003 µM, first compound 10 µM
[8] = curve of first compound, second compound 0.00949 µM
[9] = curve of first compound, second compound 0.03 µM
[10] = curve of first compound, second compound 0.0949 µM
[11] = curve of first compound, second compound 0.3 µM

## COc1cc(C)[nH]c(=O)c1CN1CCc2c(Cl)cc(C(OC)C3COC3)c(Cl)c2C1=O (stereo unspecified) + COc1cc2c(cc1O)CCNC21CSC2c3c(OC(C)=O)c(C)c4c(c3C(COC1=O)N1C(O)C3Cc5cc(C)c(OC)c(O)c5C(C21)N3C)OCO4
Curve of first compound, second compound 30 pM
  IC50: > 10000 nM
Curve of first compound, second compound 94.9 pM
  IC50: > 10000 nM
Curve of first compound, second compound 0.0003 µM
  IC50: < 31.6 nM
Curve of first compound, second compound 0.000949 µM
  IC50: < 31.6 nM
[1]
  IC50: < 31.6 nM
Second compound 30 pM, first compound 0.0316 µM
  viability, T/C: 109%
Second compound 30 pM, first compound 0.1 µM
  viability, T/C: 98.7%
Second compound 30 pM, first compound 0.316 µM
  viability, T/C: 96.8%
Second compound 30 pM, first compound 1 µM
  viability, T/C: 91.4%
Second compound 30 pM, first compound 3.16 µM
  viability, T/C: 86.7%
Second compound 30 pM, first compound 10 µM
  viability, T/C: 83.2%
Second compound 94.9 pM, first compound 0.0316 µM
  viability, T/C: 99.4%
Second compound 94.9 pM, first compound 0.1 µM
  viability, T/C: 84.2%
Second compound 94.9 pM, first compound 0.316 µM
  viability, T/C: 82.2%
Second compound 94.9 pM, first compound 1 µM
  viability, T/C: 86.2%
Second compound 94.9 pM, first compound 3.16 µM
  viability, T/C: 80.9%
Second compound 94.9 pM, first compound 10 µM
  viability, T/C: 80.9%
Second compound 0.0003 µM, first compound 0.0316 µM
  viability, T/C: 49.3%
Second compound 0.0003 µM, first compound 0.1 µM
  viability, T/C: 41.2%
Second compound 0.0003 µM, first compound 0.316 µM
  viability, T/C: 38%
Second compound 0.0003 µM, first compound 1 µM
  viability, T/C: 36.3%
Second compound 0.0003 µM, first compound 3.16 µM
  viability, T/C: 34.2%
Second compound 0.0003 µM, first compound 10 µM
  viability, T/C: 31.3%
Second compound 0.000949 µM, first compound 0.0316 µM
  viability, T/C: 39.6%
Second compound 0.000949 µM, first compound 0.1 µM
  viability, T/C: 47.4%
Second compound 0.000949 µM, first compound 0.316 µM
  viability, T/C: 44.6%
Second compound 0.000949 µM, first compound 1 µM
  viability, T/C: 37.7%
Second compound 0.000949 µM, first compound 3.16 µM
  viability, T/C: 34.1%
Second compound 0.000949 µM, first compound 10 µM
  viability, T/C: 18.3%
[2]
  viability, T/C: 1.16%
[3]
  viability, T/C: 1.08%
[4]
  viability, T/C: 0.9%
[5]
  viability, T/C: 1.24%
[6]
  viability, T/C: 1.05%
[7]
  viability, T/C: 1.71%

## [2H]c1nc(C)nc([2H])c1-c1cc(NC[C@@H](C)c2cccc3c(C(=O)NC)ccnc23)ncn1 + CC[C@@]1(O)C(=O)OCc2c1cc1n(c2=O)Cc2cc3c(CN(C)C)c(O)ccc3nc2-1
[1]
  IC50: > 10000 nM
[8]
  IC50: > 10000 nM
[9]
  IC50: 2000 nM
[10]
  IC50: 1550 nM
[11]
  IC50: 8580 nM
[2]
  viability, T/C: 99.2%
[3]
  viability, T/C: 98.1%
[4]
  viability, T/C: 103%
[5]
  viability, T/C: 99%
[6]
  viability, T/C: 101%
[7]
  viability, T/C: 100%
Second compound 0.00949 µM, first compound 0.0316 µM
  viability, T/C: 68.6%
Second compound 0.00949 µM, first compound 0.1 µM
  viability, T/C: 72.5%
Second compound 0.00949 µM, first compound 0.316 µM
  viability, T/C: 83.1%
Second compound 0.00949 µM, first compound 1 µM
  viability, T/C: 87.7%
Second compound 0.00949 µM, first compound 3.16 µM
  viability, T/C: 85%
Second compound 0.00949 µM, first compound 10 µM
  viability, T/C: 85.1%
Second compound 0.03 µM, first compound 0.0316 µM
  viability, T/C: 56.6%
Second compound 0.03 µM, first compound 0.1 µM
  viability, T/C: 58.3%
Second compound 0.03 µM, first compound 0.316 µM
  viability, T/C: 52.1%
Second compound 0.03 µM, first compound 1 µM
  viability, T/C: 55.2%
Second compound 0.03 µM, first compound 3.16 µM
  viability, T/C: 47.3%
Second compound 0.03 µM, first compound 10 µM
  viability, T/C: 38.9%
Second compound 0.0949 µM, first compound 0.0316 µM
  viability, T/C: 58.3%
Second compound 0.0949 µM, first compound 0.1 µM
  viability, T/C: 59.8%
Second compound 0.0949 µM, first compound 0.316 µM
  viability, T/C: 54.7%
Second compound 0.0949 µM, first compound 1 µM
  viability, T/C: 62.5%
Second compound 0.0949 µM, first compound 3.16 µM
  viability, T/C: 34.4%
Second compound 0.0949 µM, first compound 10 µM
  viability, T/C: 37%
Second compound 0.3 µM, first compound 0.0316 µM
  viability, T/C: 55.9%
Second compound 0.3 µM, first compound 0.1 µM
  viability, T/C: 55.4%
Second compound 0.3 µM, first compound 0.316 µM
  viability, T/C: 57.1%
Second compound 0.3 µM, first compound 1 µM
  viability, T/C: 57.3%
Second compound 0.3 µM, first compound 3.16 µM
  viability, T/C: 57.1%
Second compound 0.3 µM, first compound 10 µM
  viability, T/C: 42.4%

## CC[C@@]1(O)C(=O)OCc2c1cc1n(c2=O)Cc2cc3c(CN(C)C)c(O)ccc3nc2-1
Compound 0.00949 µM
  viability, T/C: 76% [middle of 10 runs]
Compound 0.03 µM
  viability, T/C: 55% [middle of 10 runs]
Compound 0.0949 µM
  viability, T/C: 52% [middle of 10 runs]
Compound 0.3 µM
  viability, T/C: 48.1% [middle of 10 runs]
Compound alone, run of 10/17/2019
  IC50: 45.7 nM [middle of 5 runs]
Compound alone, run of 10/25/2019
  IC50: > 300 nM and 163 nM and 172 nM

## Cc1sc2c(c1C)C(c1ccc(Cl)cc1)=NC(CC(=O)Nc1ccc(O)cc1)c1nnc(C)n1-2 (stereo unspecified) + CC[C@@]1(O)C(=O)OCc2c1cc1n(c2=O)Cc2cc3c(CN(C)C)c(O)ccc3nc2-1
[1]
  IC50: 406 nM
[8]
  IC50: 441 nM
[9]
  IC50: 531 nM
[10]
  IC50: 185 nM
[11]
  IC50: 70.9 nM
Second compound 0.003 µM, first compound 0.00949 µM
  viability, T/C: 107%
Second compound 0.003 µM, first compound 0.03 µM
  viability, T/C: 82.7%
Second compound 0.003 µM, first compound 0.0949 µM
  viability, T/C: 100%
Second compound 0.003 µM, first compound 0.3 µM
  viability, T/C: 59.9%
Second compound 0.003 µM, first compound 0.949 µM
  viability, T/C: 23.6%
Second compound 0.003 µM, first compound 3 µM
  viability, T/C: 15.1%
Second compound 0.00949 µM, first compound 0.00949 µM
  viability, T/C: 81.8%
Second compound 0.00949 µM, first compound 0.03 µM
  viability, T/C: 92.6%
Second compound 0.00949 µM, first compound 0.0949 µM
  viability, T/C: 104%
Second compound 0.00949 µM, first compound 0.3 µM
  viability, T/C: 64.2%
Second compound 0.00949 µM, first compound 0.949 µM
  viability, T/C: 23.7%
Second compound 0.00949 µM, first compound 3 µM
  viability, T/C: 13.3%
Second compound 0.03 µM, first compound 0.00949 µM
  viability, T/C: 71.2%
Second compound 0.03 µM, first compound 0.03 µM
  viability, T/C: 88.7%
Second compound 0.03 µM, first compound 0.0949 µM
  viability, T/C: 106%
Second compound 0.03 µM, first compound 0.3 µM
  viability, T/C: 73%
Second compound 0.03 µM, first compound 0.949 µM
  viability, T/C: 25.3%
Second compound 0.03 µM, first compound 3 µM
  viability, T/C: 8.57%
Second compound 0.0949 µM, first compound 0.00949 µM
  viability, T/C: 66.6%
Second compound 0.0949 µM, first compound 0.03 µM
  viability, T/C: 76.2%
Second compound 0.0949 µM, first compound 0.0949 µM
  viability, T/C: 85.2%
Second compound 0.0949 µM, first compound 0.3 µM
  viability, T/C: 31.2%
Second compound 0.0949 µM, first compound 0.949 µM
  viability, T/C: 7.66%
Second compound 0.0949 µM, first compound 3 µM
  viability, T/C: 5.05%
Second compound 0.3 µM, first compound 0.00949 µM
  viability, T/C: 53.1%
Second compound 0.3 µM, first compound 0.03 µM
  viability, T/C: 60.9%
Second compound 0.3 µM, first compound 0.0949 µM
  viability, T/C: 47.4%
Second compound 0.3 µM, first compound 0.3 µM
  viability, T/C: 9.5%
Second compound 0.3 µM, first compound 0.949 µM
  viability, T/C: 3.88%
Second compound 0.3 µM, first compound 3 µM
  viability, T/C: 2.4%

Reference: PubChem BioAssay AID1845201 (Molecular Pharmacology Branch, DTP, NCI, 2023)
